# Measured values as given in EP4768480A1, “ALKOXY THIOPHENE ACYL ARYLAMINE COMPOUNDS AND USE THEREOF” (priority 2024, dated 2025).
# What was measured:
# dry eye mice [1] = test: Ocular surface sodium fluorescein staining in dry eye mice; assay type: in vivo, male C57BL/6 experimental mice; conditions: for corneal fluorescein sodium staining scores compared to cyclosporine eyedrops: 0.04% compound, comparison with cyclosporine eyedrops; for corneal fluorescein sodium staining scores compared to cyclosporine eyedrops / corneal fluorescein sodium staining scores: 5 µl per eye, twice daily, one week; for corneal fluorescein sodium staining scores: ocular surface, 0.04% compound or commercial cyclosporine eyedrops, versus carrier group; for area of corneal damage (sodium fluorescein staining photograph): compared to the carrier group, Figure 2
# Method: (§1) Experimental animals: male C57BL/6 experimental mice aged 6-8 weeks.
# (§2) Experimental reagents and consumables: phenol red cotton line, 1% sodium fluorescein solution, ? 0.05% cyclosporin eyedrops (II) from Xingqi Eyedrops Company, 0.
# (§3) At the end of 2 weeks, the dry eye mice were randomly divided into four groups, with 7 mice in each group.
# (§4) Each eye of every mouse received 5 µl of […] through ocular surface administration, twice daily. Another group of 7 male C57BL/6 experimental mice aged 6-8 weeks was kept in a thermostatic blast drying oven with controlled environmental humidity of 50% and temperature of 25°C, and received an empty carrier as a physiological control in the third week.
# (§5) All mice were evaluated for ocular surface damage recovery by ocular surface fluorescein sodium staining scores on the third weekend, and the tear secretion of mice was measured with phenol red surface lines. To be more specific, the phenol red surface line was placed in the conjunctival sac of a mouse in the anesthesia state for 30 seconds, and then the discoloration length of the phenol red surface line was measured. 2 µl of 1% sodium fluorescein solution was then administered through ocular surface, and photographs were taken under a cobalt blue lamp for scoring and statistics.
# dry eye mice [2] = test: Tear secretion by phenol red cotton thread in dry eye mice; assay type: in vivo, male C57BL/6 experimental mice; conditions: thread 30 seconds in conjunctival sac, compared to the vehicle group, Figure 3
# Method: as §1, §2, §3, §4, §5
# Aβ = Aβ (Homo sapiens, UniProt P05067); conditions: literature value, Deepak et al., 2020; read-out: inhibiting the aggregation of Aβ, EC50; cited from earlier work
# SMS2 = target: T1, SMS2 (Homo sapiens, UniProt Q8NHU3); test: SMS2 inhibitory activity in vitro, HPLC fluorescence quantitative detection (C6-NBD-ceramide to C6-NBD-SM); assay type: biochemical; conditions: SMS2 pure enzyme; for inhibition at 1 µM: 1 µM test compound, read-out: Inhibition rate on SMS2 at C/µM 1; for inhibition at 1 µM / inhibition at 10 µM: 37°C, 30 minutes, average of two measurements; for inhibition at 10 µM: 10 µM test compound, read-out: Inhibition rate on SMS2 at C/µM 10
# T1 construct: CAO, Yu research team, National Protein Scientific Center (Shanghai); supplied by an outside laboratory, not a commercial vendor
# T1 sequence (Q8NHU3 1-365): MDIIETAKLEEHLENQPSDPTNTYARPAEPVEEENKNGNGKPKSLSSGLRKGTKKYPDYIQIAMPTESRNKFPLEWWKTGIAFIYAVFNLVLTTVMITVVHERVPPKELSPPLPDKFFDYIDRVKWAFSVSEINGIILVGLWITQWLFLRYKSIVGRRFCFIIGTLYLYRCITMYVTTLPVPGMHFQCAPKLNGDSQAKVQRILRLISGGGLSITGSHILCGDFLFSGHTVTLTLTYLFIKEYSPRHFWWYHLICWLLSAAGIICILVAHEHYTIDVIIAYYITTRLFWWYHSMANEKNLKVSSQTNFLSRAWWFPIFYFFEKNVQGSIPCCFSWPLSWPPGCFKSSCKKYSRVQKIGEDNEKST
# From the text: • 1. Electro-thermostatic water bath, from Shanghai Yiheng Technology Co., Ltd.); • 2. Vortex Mixer, with model ID of XW-80A, from Shanghai Jingke Industrial Co., Ltd.; • 3. […] High Performance Liquid Chromatography Agilent 1100, equipped with a quaternary pump, vacuum degassing, and FLD fluorescence detector, from Agilent Technologies, Palo Alto, CA, USA; • 5. HPLC column COSMOSIL 5C18-MS-II (4.6mm I.D. X 250mm); • 6. […] The organic solvents used in the present disclosure were purchased from Shanghai National Reagent Company, wherein methanol was pure chromatography; water was ultra-pure water which is filtrated by Milli-Q pump, deionized and ultra-filtrated with 0.22 µm membrane; and other biological consumables were purchased from domestic companies; • 8. Preparation of test compound solutions: each test compound was accurately weighed and dissolved in an appropriate volume of DMSO to prepare a 10 mmol/L stock solution. The stock solution was then diluted with an appropriate volume of DMSO to achieve the desired working concentration; • 9. SMS2 pure enzyme, DDM solution and buffer solution were provided by CAO, Yu research team from National Protein Scientific Center (Shanghai).
# 79 µl of the diluted enzyme solution were transferred into a 1.5 mL EP tube, 1 µl of inhibitor DMSO solution were added thereto, vortexing for 15 seconds, followed by standing at room temperature for 5 minutes. 20 µl of a mixed solution of DMPC and C6-NBD-ceramide were added, vortexing for 15 seconds, and incubated at 37°C for 30 minutes. 200 µl of anhydrous ethanol were added to quench the reaction, vortexing for 15 seconds. 200 µl of the reaction solution were taken out and stored at 4°C and avoided light for HPLC detection.
# The peak area values of A(sm) and A(ceramide) in the HPLC chromatogram corresponding to C6-NBD-SM and C6-NBD-Ceramide in the DMSO group and inhibitor group samples were analyzed and recorded, and the inhibition rate of the test compound was calculated according to the following formula. Inhibition rate = (Peak area values of DMSO group−Peak area values of Inhibitor group)/(Peak area values of DMSO group) × 100% [formula]
# Chain of Aβ (P05067 672-713 limits assumed): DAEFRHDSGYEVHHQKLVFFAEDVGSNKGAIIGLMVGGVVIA
smiles,measurement,setting,value
"CCCCCCCCOc1ccccc1COc1ccsc1C(=O)Nc1cccnc1 [1-31, 3-(2-(octyloxy)benzyloxy)-N-(pyridin-3-yl)thiophene-2-carboxamide]",corneal fluorescein sodium staining scores compared to cyclosporine eyedrops,dry eye mice [1],statistically significant advantages
same,corneal fluorescein sodium staining scores,dry eye mice [1],reduction in corneal fluorescein sodium staining scores
same,area of corneal damage (sodium fluorescein staining photograph),dry eye mice [1],can reduce the area of corneal damage
same,tear secretion (discoloration length of phenol red cotton thread),dry eye mice [2],exhibited an increasing trend compared to the vehicle group
CC(C)=CCC/C(C)=C/CC[C@@]1(C)C=Cc2c(cc(C)c(C(=O)O)c2O)O1 [Daurichromonic acid],EC50,Aβ,57 µM
"O=C(Nc1cccnc1)c1sccc1OCc1cc(F)ccc1Cl [1-2, 3-(2-chloro-5-fluorobenzyloxy)-N-(pyridin-3-yl)thiophene-2-carboxamide]",corneal fluorescein sodium staining scores compared to cyclosporine eyedrops,dry eye mice [1],statistically significant advantages
same,corneal fluorescein sodium staining scores,dry eye mice [1],reduction in corneal fluorescein sodium staining scores
same,area of corneal damage (sodium fluorescein staining photograph),dry eye mice [1],can reduce the area of corneal damage
same,tear secretion (discoloration length of phenol red cotton thread),dry eye mice [2],exhibited an increasing trend compared to the vehicle group
"O=C(Nc1ccc2c(c1)Cc1ccccc1-2)c1sccc1OCc1ccccc1 [12-7, 3-(benzyloxy)-N-(9H-fluoren-2-yl)thiophene-2-carboxamide]",inhibition at 1 µM,SMS2,-16%
"O=C(Nc1nncs1)c1sccc1OCc1ccccc1 [12-3, 3-benzyloxy-N-(1,3,4-thiadiazol-2-yl)thiophene-2-carboxamide]",inhibition at 1 µM,SMS2,-8%
"Cc1ccc(COc2ccsc2C(=O)Nc2cccnc2)cc1 [1-42, 3-(4-methylbenzyloxy)-N-(pyridin-3-yl)thiophene-2-carboxamide]",inhibition at 10 µM,SMS2,50%
"O=C(Nc1cccnc1)c1cscc1OCc1ccccc1 [1-100, 4-(benzyloxy)-N-(pyridin-3-yl)thiophene-3-carboxamide]",inhibition at 1 µM,SMS2,60%
"O=C(Nc1ccnnc1)c1sccc1OCc1ccccc1 [12-2, 3-benzyloxy-N-(pyridazin-4-yl)thiophene-2-carboxamide]",inhibition at 10 µM,SMS2,23%
"O=C(Nc1ccc2c(c1)oc1ccccc12)c1sccc1OCc1ccccc1 [12-6, 3-(benzyloxy)-N(dibenzo[b,d]furan-3-yl)thiophene-2-carboxamide]",inhibition at 1 µM,SMS2,-5%
"CCCCCCCOc1ccc(Cl)cc1COc1ccsc1C(=O)Nc1cccnc1 [1-74, 3-(5-chloro-2-(heptyloxy)benzyloxy)-N-(pyridin-3-yl)thiophene-2-carboxamide]",inhibition at 1 µM,SMS2,98%
"Cc1cc(OCc2ccccc2)c(C(=O)Nc2cccnc2)s1 [1-40, 3-benzyloxy-5-methyl-N-(pyridin-3-yl)thiophene-2-carboxamide]",inhibition at 1 µM,SMS2,23%
"Cc1cccc(COc2ccsc2C(=O)Nc2cccnc2)c1 [1-43, 3-(3-methylbenzyloxy)-N-(pyridin-3-yl)thiophene-2-carboxamide]",inhibition at 1 µM,SMS2,69%
"O=C(Nc1cccnc1)c1sccc1OCC12CC3CC(CC(C3)C1)C2 [1-99, 3-(adamantan-1-ylmethoxy)-N-(pyridin-3-yl)thiophene-2-carboxamide]",inhibition at 10 µM,SMS2,62%
"O=C(Nc1cc(F)ccn1)c1sccc1OCc1ccccc1 [12-4, 3-benzyloxy-N-(4-fluoropyridin-2-yl)thiophene-2-carboxamide]",inhibition at 1 µM,SMS2,3%
"O=C(Nc1cccnc1)c1sccc1OCc1cccc(C(F)(F)F)c1 [1-97, 3-(3-trifluoromethylbenzyloxy)-N-(pyridin-3-yl)thiophene-2-carboxamide]",inhibition at 1 µM,SMS2,80%
"O=C(Nc1cccnc1)c1sccc1OCc1ccccc1Br [1-86, 3-(2-bromobenzyloxy)-N-(pyridin-3-yl)thiophene-2-carboxamide]",inhibition at 1 µM,SMS2,86%
"COc1ccc2ccccc2c1COc1ccsc1C(=O)Nc1cccnc1 [1-16, 3-[(2-methoxynaphthalen-1-yl)methoxy]-N-(pyridin-3-yl)thiophene-2-carboxamide]",inhibition at 1 µM,SMS2,78%
"N#Cc1ccc(COc2ccsc2C(=O)Nc2cccnc2)cc1 [1-52, 3-(4-cyanobenzyloxy)-N-(pyridin-3-yl)thiophene-2-carboxamide]",inhibition at 10 µM,SMS2,50%
"CCc1ccccc1COc1ccccc1C(=O)Nc1cccnc1 [12-1 (LY93), 2-(2-ethylbenzyloxy)-N-(pyridin-3-yl)benzamide, reference compound]",inhibition at 1 µM,SMS2,66%
same,IC50,SMS2,0.285 µM
